Data published in patent publication US5968907A (priority 1997, dated 1999).

Experiments:
cholera toxin = cholera toxin (Vibrio cholerae serotype O1, UniProt P01556); assay: biochemical; details: read-out: inhibition of binding of cholera toxin to ganglioside GD1b
CFA I pili = CFA I pili (Escherichia coli, UniProt P0CK93+P25734); assay: biochemical; details: read-out: inhibition of CFA I pili binding to glycophorin
[1] = target: heat-labile enterotoxin from E. coli (Escherichia coli, UniProt P0CK94); assay type: binding; details: at the concentration employed in the assay
Sequence of heat-labile enterotoxin from E. coli (P0CK94 whole entry, looked up): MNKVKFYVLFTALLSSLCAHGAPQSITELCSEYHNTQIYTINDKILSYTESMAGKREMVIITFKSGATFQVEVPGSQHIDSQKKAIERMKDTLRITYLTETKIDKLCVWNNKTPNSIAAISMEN

Sequence of CFA I pili (P0CK93 24-170): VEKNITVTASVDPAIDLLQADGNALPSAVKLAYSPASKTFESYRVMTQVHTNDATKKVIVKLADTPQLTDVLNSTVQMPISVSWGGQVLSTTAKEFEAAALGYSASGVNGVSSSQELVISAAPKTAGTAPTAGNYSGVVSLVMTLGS
Sequence of CFA I pili (P25734 23-360): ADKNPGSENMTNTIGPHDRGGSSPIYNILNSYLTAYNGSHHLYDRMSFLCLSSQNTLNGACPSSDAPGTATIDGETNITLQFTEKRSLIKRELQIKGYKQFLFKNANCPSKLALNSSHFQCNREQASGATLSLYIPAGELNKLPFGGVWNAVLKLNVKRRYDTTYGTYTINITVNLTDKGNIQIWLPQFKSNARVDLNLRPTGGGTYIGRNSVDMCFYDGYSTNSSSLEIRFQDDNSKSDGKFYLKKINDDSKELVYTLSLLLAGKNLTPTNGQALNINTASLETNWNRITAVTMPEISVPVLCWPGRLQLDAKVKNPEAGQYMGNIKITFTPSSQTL
Sequence of cholera toxin (P01556 22-124 limits assumed): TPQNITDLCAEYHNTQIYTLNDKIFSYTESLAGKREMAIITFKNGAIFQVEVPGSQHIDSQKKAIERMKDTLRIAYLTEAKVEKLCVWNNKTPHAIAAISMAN

`O=C(O)[C@H](Cc1c[nH]cn1)NC1CCCC(S[C@@H]2O[C@H](CO)[C@H](O)[C@H](O)[C@H]2O)C1` (stereo partly drawn) [Example H10, Nα-[3-(1-Thio-β-D-galactopyranosyl)cyclohex-1-yl]-L-histidine] gave an inhibition at 1000 µg/mL (cholera toxin) of under 20% and an inhibition at 1000 µg/mL (CFA I pili) of 13 to 71%.
In the case of `O=C(O)[C@H](Cc1c[nH]cn1)NC1CCCCC(S[C@@H]2O[C@H](CO)[C@H](O)[C@H](O)[C@H]2O)C1` (stereo partly drawn) [Example H5, Nα-[3-(1-Thio-β-D-galactopyranosyl)cyclohept-1-yl]-L-histidine], the inhibition at 1000 µg/mL (cholera toxin) is reported as under 20% and the inhibition at 1000 µg/mL (CFA I pili) is reported as 13 to 71%.
`NC1CCCCC1S[C@@H]1O[C@H](CO)[C@H](O)[C@H](O)[C@H]1O` (stereo partly drawn) [Example B2, 2-Aminocyclohex-1-yl 1-Thio-β-D-galactopyranoside] was tested, and the inhibition at 1000 µg/mL (CFA I pili) was 13 to 71% and the “inhibition of binding of heat-labile enterotoxin to ganglioside GD1b” value [1] was “at least 20%”.
Work on `CC1(C)CCC(N[C@@H](Cc2c[nH]cn2)C(=O)O)CC1S[C@@H]1O[C@H](CO)[C@H](O)[C@H](O)[C@H]1O` (stereo partly drawn) [Example H9, Nα-[4,4-Dimethyl-3-(1-thio-β-D-galactopyranosyl)-cyclohex-1-yl]-L-histidine] yielded an inhibition at 1000 µg/mL (cholera toxin) of under 20% and an inhibition at 1000 µg/mL (CFA I pili) of 13 to 71%.
With `O=C(O)[C@H](Cc1c[nH]c2ccccc12)NC1CCCCC1S[C@@H]1O[C@H](CO)[C@H](O)[C@H](O)[C@H]1O` (stereo partly drawn) [Example I2, Nα-[2-(1-Thio-β-D-galactopyranosyl)cyclohex-1-yl]-L-tryptophan] the inhibition at 1000 µg/mL (cholera toxin) was under 20%, the inhibition at 1000 µg/mL (CFA I pili) was 13 to 71% and the “inhibition of binding of heat-labile enterotoxin to ganglioside GD1b” value [1] was “at least 20%”.
Work on `O=C(O)[C@H](Cc1c[nH]cn1)NC1CCCCC1S[C@@H]1O[C@H](CO)[C@H](O)[C@H](O)[C@H]1O` (stereo partly drawn) [Example H2, Nα-[2-(1-Thio-β-D-galactopyranosyl)cyclohex-1-yl]-L-histidine] yielded an inhibition at 1000 µg/mL (cholera toxin) of under 20% and an inhibition at 1000 µg/mL (CFA I pili) of 13 to 71%.
Work on `CC(CC(C)S[C@@H]1O[C@H](CO)[C@H](O)[C@H](O)[C@H]1O)N[C@@H](Cc1c[nH]cn1)C(=O)O` (stereo partly drawn) [Example H8, Nα-[4-(1-Thio-β-D-galactopyranosyl)pent-2-yl]-L-histidine] yielded an inhibition at 1000 µg/mL (cholera toxin) of under 20% and an inhibition at 1000 µg/mL (CFA I pili) of 13 to 71%.
In the case of `O=C(O)[C@H](Cc1c[nH]c2ccccc12)NC1CCCC1S[C@@H]1O[C@H](CO)[C@H](O)[C@H](O)[C@H]1O` (stereo partly drawn) [Example I1, Nα-[2-(1-Thio-β-D-galactopyranosyl)cyclopent-1-yl]-L-tryptophan], the inhibition at 1000 µg/mL (cholera toxin) is reported as at least 20% and the inhibition at 1000 µg/mL (CFA I pili) is reported as 13 to 71%.
